Measured values as given in ChEMBL document CHEMBL4507316 (2021).
Activity calls are given as the source filed them. The calls are words filed in the database; no cut-off is given here.

What was measured:
[1] = molecular target: Sodium-dependent dopamine transporter (Homo sapiens, UniProt Q01959); experiment: GPCRScan assay: inhibition of DAT; design: radioligand conc. used [nm] 3.6 – 16.0, parental cells stable HEK
[2] = molecular target: Heat shock protein beta-1 (Homo sapiens, UniProt P04792); experiment: Inhibition of HSP27 (Ser82) (Western blot)
[3] = system: Tyrosine-protein kinase ABL1 (Homo sapiens), P00519 [Y253F]; experiment: ABL1 Y253F ProQinase selectivity panel; conditions: Compound concentration 1.0 uM
[4] = molecular target: Activated CDC42 kinase 1 (Homo sapiens) (UniProt Q07912); experiment: ACK1 ProQinase selectivity panel; conditions: Compound concentration 1.0 uM
[5] = molecular target: Aurora kinase A (Homo sapiens) (UniProt O14965); experiment: Aurora-A ProQinase selectivity panel; conditions: Compound concentration 1.0 uM
[6] = molecular target: Protein-tyrosine kinase 6 (Homo sapiens) (UniProt Q13882); experiment: BRK ProQinase selectivity panel; conditions: Compound concentration 1.0 uM
[7] = molecular target: Calcium/calmodulin-dependent protein kinase type 1D (Homo sapiens) (UniProt Q8IU85); experiment: CAMK1D ProQinase selectivity panel; conditions: Compound concentration 1.0 uM
[8] = molecular target: Calcium/calmodulin-dependent protein kinase type II subunit beta (Homo sapiens) (UniProt Q13554); experiment: CAMK2B ProQinase selectivity panel; conditions: Compound concentration 1.0 uM
[9] = molecular target: CDK8/Cyclin C (Homo sapiens) (UniProt P49336+P24863); experiment: CDK8/CycC ProQinase selectivity panel; assay type: protein-complex assay; conditions: Compound concentration 1.0 uM
[10] = molecular target: Casein kinase I isoform alpha (Homo sapiens) (UniProt P48729); experiment: CK1-alpha1 ProQinase selectivity panel; conditions: Compound concentration 1.0 uM
[11] = molecular target: Serine/threonine-protein kinase DCLK2 (Homo sapiens) (UniProt Q8N568); experiment: DCAMKL2 ProQinase selectivity panel; conditions: Compound concentration 1.0 uM
[12] = molecular target: Dual specificity tyrosine-phosphorylation-regulated kinase 1A (Homo sapiens) (UniProt Q13627); experiment: DYRK1A ProQinase selectivity panel; conditions: Compound concentration 1.0 uM
[13] = system: Epidermal growth factor receptor (Homo sapiens), P00533 [UNDEFINED MUTATION]; experiment: EGF-R d747-749/A750P ProQinase selectivity panel; conditions: Compound concentration 1.0 uM
[14] = system: Epidermal growth factor receptor (Homo sapiens), P00533 [L858R]; experiment: EGF-R L858R ProQinase selectivity panel; conditions: Compound concentration 1.0 uM
[15] = molecular target: Epidermal growth factor receptor (Homo sapiens) (UniProt P00533); experiment: EGF-R wt ProQinase selectivity panel; conditions: Compound concentration 1.0 uM
[16] = molecular target: Mitogen-activated protein kinase 1 (Homo sapiens) (UniProt P28482); experiment: ERK2 ProQinase selectivity panel; conditions: Compound concentration 1.0 uM
[17] = molecular target: Focal adhesion kinase 1 (Homo sapiens) (UniProt Q05397); experiment: FAK ProQinase selectivity panel; conditions: Compound concentration 1.0 uM
[18] = molecular target: Fibroblast growth factor receptor 2 (Homo sapiens) (UniProt P21802); experiment: FGF-R2 ProQinase selectivity panel; conditions: Compound concentration 1.0 uM
[19] = molecular target: Homeodomain-interacting protein kinase 4 (Homo sapiens) (UniProt Q8NE63); experiment: HIPK4 ProQinase selectivity panel; conditions: Compound concentration 1.0 uM
[20] = molecular target: Eukaryotic translation initiation factor 2-alpha kinase 1 (Homo sapiens) (UniProt Q9BQI3); experiment: HRI ProQinase selectivity panel; conditions: Compound concentration 1.0 uM
[21] = molecular target: Tyrosine-protein kinase ITK/TSK (Homo sapiens) (UniProt Q08881); experiment: ITK ProQinase selectivity panel; conditions: Compound concentration 1.0 uM
[22] = system: Mast/stem cell growth factor receptor Kit (Homo sapiens), P10721 [T670I]; experiment: KIT T670I ProQinase selectivity panel; conditions: Compound concentration 1.0 uM
[23] = molecular target: LIM domain kinase 2 (Homo sapiens) (UniProt P53671); experiment: LIMK2 ProQinase selectivity panel; conditions: Compound concentration 1.0 uM
[24] = system: Leucine-rich repeat serine/threonine-protein kinase 2 (Homo sapiens), Q5S007 [R1441C]; experiment: LRRK2 R1441C ProQinase selectivity panel; conditions: Compound concentration 1.0 uM
[25] = molecular target: Mitogen-activated protein kinase kinase kinase kinase 5 (Homo sapiens) (UniProt Q9Y4K4); experiment: MAP4K5 ProQinase selectivity panel; conditions: Compound concentration 1.0 uM
[26] = molecular target: Serine/threonine-protein kinase MARK2 (Homo sapiens) (UniProt Q7KZI7); experiment: MARK2 ProQinase selectivity panel; conditions: Compound concentration 1.0 uM
[27] = molecular target: Serine/threonine-protein kinase 3 (Homo sapiens) (UniProt Q13188); experiment: MST2 ProQinase selectivity panel; conditions: Compound concentration 1.0 uM
[28] = system: Platelet-derived growth factor receptor alpha (Homo sapiens), P16234 [D842V]; experiment: PDGFR-alpha D842V ProQinase selectivity panel; conditions: Compound concentration 1.0 uM
[29] = molecular target: Platelet-derived growth factor receptor beta (Homo sapiens) (UniProt P09619); experiment: PDGFR-beta ProQinase selectivity panel; conditions: Compound concentration 1.0 uM
[30] = molecular target: Serine/threonine-protein kinase pim-1 (Homo sapiens) (UniProt P11309); experiment: PIM1 ProQinase selectivity panel; conditions: Compound concentration 1.0 uM
[31] = molecular target: Protein kinase C eta type (Homo sapiens) (UniProt P24723); experiment: PKC-eta ProQinase selectivity panel; conditions: Compound concentration 1.0 uM
[32] = system: Proto-oncogene tyrosine-protein kinase receptor Ret (Homo sapiens), P07949 [Y791F]; experiment: RET Y791F ProQinase selectivity panel; conditions: Compound concentration 1.0 uM
[33] = molecular target: Dual serine/threonine and tyrosine protein kinase (Homo sapiens) (UniProt Q6XUX3); experiment: RIPK5 ProQinase selectivity panel; conditions: Compound concentration 1.0 uM
[34] = molecular target: Rho-associated protein kinase 2 (Homo sapiens) (UniProt O75116); experiment: ROCK2 ProQinase selectivity panel; conditions: Compound concentration 1.0 uM
[35] = molecular target: Ribosomal protein S6 kinase alpha-6 (Homo sapiens) (UniProt Q9UK32); experiment: RPS6KA6 ProQinase selectivity panel; conditions: Compound concentration 1.0 uM
[36] = molecular target: Serine/threonine-protein kinase PLK4 (Homo sapiens) (UniProt O00444); experiment: SAK ProQinase selectivity panel; conditions: Compound concentration 1.0 uM
[37] = molecular target: Testis-specific serine/threonine-protein kinase 2 (Homo sapiens) (UniProt Q96PF2); experiment: TSK2 ProQinase selectivity panel; conditions: Compound concentration 1.0 uM
[38] = molecular target: Testis-specific serine/threonine-protein kinase 1 (Homo sapiens) (UniProt Q9BXA7); experiment: TSSK1 ProQinase selectivity panel; conditions: Compound concentration 1.0 uM
[39] = molecular target: Dual specificity protein kinase TTK (Homo sapiens) (UniProt P33981); experiment: TTK ProQinase selectivity panel; conditions: Compound concentration 1.0 uM
[40] = molecular target: Tyrosine-protein kinase TXK (Homo sapiens) (UniProt P42681); experiment: TXK ProQinase selectivity panel; conditions: Compound concentration 1.0 uM
[41] = molecular target: Non-receptor tyrosine-protein kinase TYK2 (Homo sapiens) (UniProt P29597); experiment: TYK2 ProQinase selectivity panel; conditions: Compound concentration 1.0 uM
[42] = molecular target: Serine/threonine-protein kinase VRK1 (Homo sapiens) (UniProt Q99986); experiment: VRK1 ProQinase selectivity panel; conditions: Compound concentration 1.0 uM
[43] = molecular target: 5-hydroxytryptamine receptor 1D (Homo sapiens) (UniProt P28221); conditions: Compound concentration 10.0 uM
[44] = molecular target: 5-hydroxytryptamine receptor 2B (Homo sapiens, UniProt P41595); conditions: Compound concentration 10.0 uM
[45] = molecular target: Mu-type opioid receptor (Homo sapiens) (UniProt P35372); conditions: Compound concentration 10.0 uM
[46] = molecular target: Beta-2 adrenergic receptor (Homo sapiens) (UniProt P07550); conditions: Compound concentration 10.0 uM
[47] = molecular target: Muscarinic acetylcholine receptor M4 (Homo sapiens) (UniProt P08173); conditions: Compound concentration 10.0 uM
[48] = molecular target: Muscarinic acetylcholine receptor M5 (Homo sapiens) (UniProt P08912); conditions: Compound concentration 10.0 uM
[49] = molecular target: Alpha-1D adrenergic receptor (Homo sapiens) (UniProt P25100); conditions: Compound concentration 10.0 uM

Sodium-dependent dopamine transporter, sequence (Q01959 whole entry): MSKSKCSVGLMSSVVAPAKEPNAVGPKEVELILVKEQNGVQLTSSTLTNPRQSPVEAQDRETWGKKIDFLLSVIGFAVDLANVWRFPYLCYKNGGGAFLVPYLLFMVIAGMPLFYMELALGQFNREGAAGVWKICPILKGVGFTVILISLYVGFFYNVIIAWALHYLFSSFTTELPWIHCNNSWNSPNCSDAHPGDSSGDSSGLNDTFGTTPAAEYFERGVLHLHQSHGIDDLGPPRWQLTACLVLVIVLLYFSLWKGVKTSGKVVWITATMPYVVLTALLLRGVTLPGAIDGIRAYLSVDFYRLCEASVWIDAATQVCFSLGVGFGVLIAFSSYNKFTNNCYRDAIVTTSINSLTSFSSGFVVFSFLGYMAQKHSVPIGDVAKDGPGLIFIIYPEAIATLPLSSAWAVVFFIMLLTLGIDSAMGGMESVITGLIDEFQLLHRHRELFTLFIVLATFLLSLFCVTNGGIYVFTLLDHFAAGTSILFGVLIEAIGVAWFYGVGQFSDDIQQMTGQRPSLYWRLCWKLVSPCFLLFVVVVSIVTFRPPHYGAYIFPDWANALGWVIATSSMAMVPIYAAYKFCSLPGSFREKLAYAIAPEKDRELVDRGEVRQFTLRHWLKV
Serine/threonine-protein kinase MARK2 (Homo sapiens), sequence (Q7KZI7 whole entry): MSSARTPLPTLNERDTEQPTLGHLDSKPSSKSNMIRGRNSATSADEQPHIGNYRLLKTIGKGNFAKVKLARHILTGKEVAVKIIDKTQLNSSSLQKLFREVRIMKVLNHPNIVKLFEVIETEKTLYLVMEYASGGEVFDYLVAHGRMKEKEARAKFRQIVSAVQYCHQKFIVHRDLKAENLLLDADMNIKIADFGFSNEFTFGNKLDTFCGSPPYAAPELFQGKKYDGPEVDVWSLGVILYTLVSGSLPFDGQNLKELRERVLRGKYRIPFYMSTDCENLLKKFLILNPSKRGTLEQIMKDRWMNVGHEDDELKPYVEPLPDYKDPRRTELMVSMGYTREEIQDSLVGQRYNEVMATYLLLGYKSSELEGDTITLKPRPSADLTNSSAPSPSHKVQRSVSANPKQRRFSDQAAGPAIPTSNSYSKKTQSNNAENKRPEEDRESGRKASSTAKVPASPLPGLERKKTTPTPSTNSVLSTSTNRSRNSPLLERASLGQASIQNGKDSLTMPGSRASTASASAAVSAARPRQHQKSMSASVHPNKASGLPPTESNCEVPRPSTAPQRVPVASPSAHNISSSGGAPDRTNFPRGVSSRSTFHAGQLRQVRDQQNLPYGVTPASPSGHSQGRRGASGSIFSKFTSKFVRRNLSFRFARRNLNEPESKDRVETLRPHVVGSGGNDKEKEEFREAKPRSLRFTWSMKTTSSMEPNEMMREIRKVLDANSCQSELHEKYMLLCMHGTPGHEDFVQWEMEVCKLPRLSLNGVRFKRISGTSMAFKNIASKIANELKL
Serine/threonine-protein kinase VRK1 (Homo sapiens), sequence (Q99986 whole entry): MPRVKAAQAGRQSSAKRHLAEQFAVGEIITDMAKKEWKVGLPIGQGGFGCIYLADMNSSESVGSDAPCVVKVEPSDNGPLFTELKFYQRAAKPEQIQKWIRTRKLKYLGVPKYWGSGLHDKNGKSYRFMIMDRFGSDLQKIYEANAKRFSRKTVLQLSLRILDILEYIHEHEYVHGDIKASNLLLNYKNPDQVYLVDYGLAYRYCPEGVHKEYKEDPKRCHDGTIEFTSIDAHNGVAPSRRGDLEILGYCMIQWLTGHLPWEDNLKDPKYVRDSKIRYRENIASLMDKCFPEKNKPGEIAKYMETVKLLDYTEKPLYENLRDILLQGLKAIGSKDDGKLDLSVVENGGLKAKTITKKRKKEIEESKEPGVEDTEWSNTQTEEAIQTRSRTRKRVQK
Epidermal growth factor receptor (Homo sapiens), P00533 [L858R], sequence (P00533 whole entry L858R): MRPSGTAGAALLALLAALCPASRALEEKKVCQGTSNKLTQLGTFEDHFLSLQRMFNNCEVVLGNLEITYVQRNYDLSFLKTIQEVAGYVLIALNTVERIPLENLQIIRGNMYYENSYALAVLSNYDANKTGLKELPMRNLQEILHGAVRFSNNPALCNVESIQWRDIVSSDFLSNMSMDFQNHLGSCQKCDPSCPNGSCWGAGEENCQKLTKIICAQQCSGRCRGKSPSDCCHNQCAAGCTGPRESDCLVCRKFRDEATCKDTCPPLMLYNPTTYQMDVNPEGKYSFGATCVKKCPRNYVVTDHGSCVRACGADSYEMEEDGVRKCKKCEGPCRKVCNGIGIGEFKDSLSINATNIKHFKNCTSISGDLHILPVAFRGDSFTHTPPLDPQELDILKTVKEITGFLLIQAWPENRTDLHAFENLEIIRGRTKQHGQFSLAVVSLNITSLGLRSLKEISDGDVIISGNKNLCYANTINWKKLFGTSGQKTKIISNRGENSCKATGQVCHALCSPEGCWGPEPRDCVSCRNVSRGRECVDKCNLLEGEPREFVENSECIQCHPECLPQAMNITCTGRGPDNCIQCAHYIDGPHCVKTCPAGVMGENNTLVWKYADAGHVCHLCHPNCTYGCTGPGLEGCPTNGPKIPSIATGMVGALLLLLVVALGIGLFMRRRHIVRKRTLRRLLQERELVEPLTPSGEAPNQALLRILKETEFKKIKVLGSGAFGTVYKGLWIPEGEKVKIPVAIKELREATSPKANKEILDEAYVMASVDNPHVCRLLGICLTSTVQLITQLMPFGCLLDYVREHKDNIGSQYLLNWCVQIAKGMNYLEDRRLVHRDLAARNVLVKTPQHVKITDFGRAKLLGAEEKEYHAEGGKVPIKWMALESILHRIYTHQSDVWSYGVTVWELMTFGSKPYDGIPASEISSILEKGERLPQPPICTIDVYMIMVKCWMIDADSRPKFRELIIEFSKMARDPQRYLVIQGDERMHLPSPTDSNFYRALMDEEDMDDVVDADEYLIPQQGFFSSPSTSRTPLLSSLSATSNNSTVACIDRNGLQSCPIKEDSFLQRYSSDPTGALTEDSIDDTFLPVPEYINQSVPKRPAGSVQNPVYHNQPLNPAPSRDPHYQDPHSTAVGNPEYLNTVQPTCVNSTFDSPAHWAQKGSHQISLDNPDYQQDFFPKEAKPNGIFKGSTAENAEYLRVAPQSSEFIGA
Serine/threonine-protein kinase 3 (Homo sapiens), sequence (Q13188 whole entry): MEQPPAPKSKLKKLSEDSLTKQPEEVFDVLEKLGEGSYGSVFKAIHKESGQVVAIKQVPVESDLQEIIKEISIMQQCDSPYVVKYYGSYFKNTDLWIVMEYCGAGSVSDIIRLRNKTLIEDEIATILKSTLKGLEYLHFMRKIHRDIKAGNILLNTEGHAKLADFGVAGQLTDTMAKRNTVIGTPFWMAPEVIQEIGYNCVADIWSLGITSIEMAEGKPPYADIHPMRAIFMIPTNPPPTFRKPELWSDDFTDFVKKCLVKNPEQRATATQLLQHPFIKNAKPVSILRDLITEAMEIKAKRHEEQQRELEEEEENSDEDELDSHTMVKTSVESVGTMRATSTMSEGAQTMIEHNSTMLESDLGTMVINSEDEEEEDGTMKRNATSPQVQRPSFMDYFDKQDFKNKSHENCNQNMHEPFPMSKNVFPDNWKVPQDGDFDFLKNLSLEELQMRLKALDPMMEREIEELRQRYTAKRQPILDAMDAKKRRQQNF
Casein kinase I isoform alpha (Homo sapiens), sequence (P48729 2-337 limits assumed): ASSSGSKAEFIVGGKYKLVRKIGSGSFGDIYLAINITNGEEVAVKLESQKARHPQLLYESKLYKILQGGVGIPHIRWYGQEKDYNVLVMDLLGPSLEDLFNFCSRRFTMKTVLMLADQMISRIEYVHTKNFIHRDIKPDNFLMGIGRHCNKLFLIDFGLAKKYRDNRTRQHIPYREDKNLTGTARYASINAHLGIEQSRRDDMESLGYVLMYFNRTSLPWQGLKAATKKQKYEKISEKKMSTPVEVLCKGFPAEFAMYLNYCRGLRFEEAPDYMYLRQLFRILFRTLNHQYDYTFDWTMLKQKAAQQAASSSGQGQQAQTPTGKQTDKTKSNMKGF
Tyrosine-protein kinase TXK (Homo sapiens), sequence (P42681 whole entry): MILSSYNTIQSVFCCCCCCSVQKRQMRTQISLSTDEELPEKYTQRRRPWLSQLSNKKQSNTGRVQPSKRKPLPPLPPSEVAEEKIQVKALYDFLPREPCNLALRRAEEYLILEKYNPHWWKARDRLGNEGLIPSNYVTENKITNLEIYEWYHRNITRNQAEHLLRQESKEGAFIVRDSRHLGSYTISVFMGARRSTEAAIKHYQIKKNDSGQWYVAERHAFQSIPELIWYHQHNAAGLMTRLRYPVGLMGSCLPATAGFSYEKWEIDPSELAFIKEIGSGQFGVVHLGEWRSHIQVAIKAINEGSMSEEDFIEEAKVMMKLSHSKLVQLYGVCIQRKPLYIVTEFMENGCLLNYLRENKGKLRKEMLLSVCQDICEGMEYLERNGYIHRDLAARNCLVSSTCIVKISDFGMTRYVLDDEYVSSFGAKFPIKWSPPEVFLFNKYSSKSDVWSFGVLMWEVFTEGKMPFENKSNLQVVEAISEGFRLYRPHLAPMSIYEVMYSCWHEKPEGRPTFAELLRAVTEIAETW
Protein kinase C eta type (Homo sapiens), sequence (P24723 whole entry): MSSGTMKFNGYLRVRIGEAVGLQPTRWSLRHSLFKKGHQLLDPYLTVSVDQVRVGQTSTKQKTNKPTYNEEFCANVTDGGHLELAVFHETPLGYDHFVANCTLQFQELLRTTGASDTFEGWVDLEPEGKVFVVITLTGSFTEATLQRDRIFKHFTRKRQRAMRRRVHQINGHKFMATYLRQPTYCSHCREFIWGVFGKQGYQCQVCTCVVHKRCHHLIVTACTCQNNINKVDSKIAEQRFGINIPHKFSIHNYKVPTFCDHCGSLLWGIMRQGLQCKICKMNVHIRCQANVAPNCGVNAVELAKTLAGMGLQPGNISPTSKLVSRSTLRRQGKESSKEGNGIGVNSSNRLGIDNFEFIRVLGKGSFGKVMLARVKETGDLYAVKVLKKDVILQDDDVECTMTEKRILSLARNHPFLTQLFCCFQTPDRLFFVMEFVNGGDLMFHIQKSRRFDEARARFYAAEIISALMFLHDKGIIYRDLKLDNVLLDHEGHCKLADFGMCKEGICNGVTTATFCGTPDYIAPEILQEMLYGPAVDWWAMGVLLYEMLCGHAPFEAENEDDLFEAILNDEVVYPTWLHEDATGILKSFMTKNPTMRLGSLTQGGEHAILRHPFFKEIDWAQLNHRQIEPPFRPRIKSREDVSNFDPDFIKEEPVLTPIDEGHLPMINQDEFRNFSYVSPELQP

Ki [1]: > 10 µM
pKi [1]: < 5
IC50 [2]: 0.025 µM (active)
% Residual activity with Skepinone-L [3]: 88%
% Residual activity with Skepinone-L [4]: 108%
% Residual activity with Skepinone-L [5]: 99%
% Residual activity with Skepinone-L [6]: 84%
% Residual activity with Skepinone-L [7]: 106%
% Residual activity with Skepinone-L [8]: 86%
% Residual activity with Skepinone-L [9]: 105%
% Residual activity with Skepinone-L [10]: 97%
% Residual activity with Skepinone-L [11]: 83%
% Residual activity with Skepinone-L [12]: 96%
% Residual activity with Skepinone-L [13]: 96%
% Residual activity with Skepinone-L [14]: 89%
% Residual activity with Skepinone-L [15]: 94%
% Residual activity with Skepinone-L [16]: 83%
% Residual activity with Skepinone-L [17]: 113%
% Residual activity with Skepinone-L [18]: 125%
% Residual activity with Skepinone-L [19]: 116%
% Residual activity with Skepinone-L [20]: 106%
% Residual activity with Skepinone-L [21]: 97%
% Residual activity with Skepinone-L [22]: 145%
% Residual activity with Skepinone-L [23]: 100%
% Residual activity with Skepinone-L [24]: 89%
% Residual activity with Skepinone-L [25]: 84%
% Residual activity with Skepinone-L [26]: 105%
% Residual activity with Skepinone-L [27]: 83%
% Residual activity with Skepinone-L [28]: 97%
% Residual activity with Skepinone-L [29]: 96%
% Residual activity with Skepinone-L [30]: 105%
% Residual activity with Skepinone-L [31]: 97%
% Residual activity with Skepinone-L [32]: 141%
% Residual activity with Skepinone-L [33]: 95%
% Residual activity with Skepinone-L [34]: 90%
% Residual activity with Skepinone-L [35]: 85%
% Residual activity with Skepinone-L [36]: 62%
% Residual activity with Skepinone-L [37]: 82%
% Residual activity with Skepinone-L [38]: 90%
% Residual activity with Skepinone-L [39]: 83%
% Residual activity with Skepinone-L [40]: 93%
% Residual activity with Skepinone-L [41]: 96%
% Residual activity with Skepinone-L [42]: 88%
inhibition [43]: 23.8%
inhibition [44]: 83.1%
inhibition [45]: 22.5%
inhibition [46]: 2.93%
inhibition [47]: -3.22%
inhibition [48]: -9.46%
inhibition [49]: 19.5%
Compound: O=C1c2ccc(Nc3ccc(F)cc3F)cc2CCc2ccc(OC[C@H](O)CO)cc21 [Skepinone-L]
